Measured values taken from article PMC13192270, “RhlR quorum-sensing receptor ligand sensitivity regulates the differential expression of phenazine genes in Pseudomonas aeruginosa” (Journal of Bacteriology, 2026).

Tested on: ΔrhlI strain expressing RhlR A44M
Assay: RNA-seq gene expression
Assay type: cell-based, Pseudomonas aeruginosa
Parameters: opmD Expression value / mexI Expression value / mexH Expression value / mexG Expression value / lasB Expression value / rhlA Expression value / rhlB Expression value / rhlR Expression value / lecB Expression value / fhp Expression value / chiC Expression value / hcnA Expression value / mvfR Expression value / katB Expression value / norC Expression value / norB Expression value / katA Expression value: unit not given here
Conditions: 2 µM C4HSL
Protocol: To determine the effects of hypo- and hypersensitivity to C4HSL on RhlR-dependent transcription activation in P. aeruginosa, we performed RNA-seq on ΔrhlI strains expressing WT RhlR, RhlR T58L, and RhlR A44M in the presence of 2 µM C4HSL. We chose this approach to better control the levels of C4HSL across samples. All gene expression analyses were done relative to a ΔrhlI strain without exogenous supplementation of AHL. Thus, we examined the total increase in C4HSL-dependent gene regulation. We observed increased rhlA RNA levels in strains expressing WT RhlR and the RhlR T58L variant compared to ΔrhlI without C4HSL or a strain expressing the RhlR A44M variant (Table 2; Table S1). […] To corroborate our RNA-seq data, we built an rhlA promoter fusion to mScarlet and assayed reporter levels in the same genetic backgrounds as our transcriptomic experiment (Fig. S7D). Strains expressing hypersensitive RhlR variants produced similar levels of fluorescent signal relative to the WT strain, while a strain expressing a hyposensitive RhlR variant had diminished levels of fluorescent reporter (Fig. S7D).
A total of […] of overnight cultures was back diluted 1:100 in 20 mL of fresh LB media and incubated for 5 h at 37°C with shaking. Cells were harvested by centrifugation, and pellets were frozen until RNA extraction. RNA was extracted using the Invitrogen PureLink RNA Mini Kit. Pellets were resuspended in 100 µL lysozyme solution containing 10 mM Tris-HCl pH 8.0, 0.1 mM EDTA, and 1 mg/mL lysozyme. Five microliters of 1% SDS was added, and the solution was mixed with a vortex and incubated at room temperature for 5 min. A total of 350 µL lysis buffer (Invitrogen) was added with 10 µL 2-mercaptoethanol for each 1 mL of lysis buffer and vortexed. Cells were lysed by bead beating (BioSpec 0.1 MM Zirconia/Silica Beads) for two rounds of 50 s. Lysed cells were transferred to fresh microcentrifuge tubes with 250 µL of 100% ethanol and mixed with a vortex. Samples were spun in spin cartridges (Invitrogen) at 12,000 × g for 15 s at room temperature, and the flow-through was discarded. A total of 700 µL Wash Buffer I (Invitrogen) was added and spun at 12,000 × g for 15 s at room temperature, and the flow-through was discarded. A total of 500 µL Wash Buffer II (Invitrogen) with ethanol was added and centrifuged for 12,000 × g for 15 s at room temperature; the flow-through was discarded, and RNA samples were washed again. Cells were spun at 12,000 × g for 1 min at room temperature to dry the membrane with the bound RNA. A total of 50 µL RNAse-free water was added to the center of the spin cartridge, incubated at room temperature for 1 min, and centrifuged for 2 min at ≥12,000 × g at room temperature. Extracted RNA was then frozen at −80°C until further use.
Bulk RNA was sent to SeqCenter (Pittsburgh, PA) where it was processed for paired-end Illumina sequencing via rRNA depletion using Ribo-Zero Plus (Illumina). Fastq files generated by SeqCenter were processed using Rockhopper with default settings ([61][–][63]). Briefly, fastq files were aligned to the genome of Pseudomonas aeruginosa UCBPP-PA14. The reads were subsequently normalized using upper-quartile normalization, and transcript abundance was determined by reads per kilobase per million mapped reads. Differential gene expression analysis was conducted using a negative binomial distribution model, outputting a P-value for each transcript. The P-values were then corrected for false discovery using the Benjamini-Hochberg procedure, resulting in the q-values reported here (Table S2). SignalMap v2.0 (NimbleGen Systems) was used to visualize read counts for phzABCDEFG1/2, phzH, phzM, and phzS (Fig. 5). Aligned sequences generated in Rockhopper were converted to GFF files, and genes of interest were isolated into unique GFF files ([37]).

## CCCC(=O)N[C@H]1CCOC1=O [C4HSL, N-butyryl-L-homoserine lactone]
  chiC Expression value: 132,918.5
  fhp Expression value: 8,878
  hcnA Expression value: 38,430
  katA Expression value: 3,887,333
  katB Expression value: 13,211.5
  lasB Expression value: 6,614,384
  lecB Expression value: 208,420
  mexG Expression value: 4,729.5
  mexH Expression value: 11,247.5
  mexI Expression value: 15,683.5
  mvfR Expression value: 214,018
  norB Expression value: 28,591
  norC Expression value: 12,922.5
  opmD Expression value: 6,012
  phnA Expression value: 2,884,404
  phnB Expression value: 694,083
  phzA1 Expression value: 8,661
  phzA2 Expression value: 11,533
  phzB1 Expression value: 163,479
  phzB2 Expression value: 178,704.5
  phzC1 Expression value: 135,611.5
  phzC2 Expression value: 156,044
  phzD1 Expression value: 153,729
  phzD2 Expression value: 137,242.5
  phzE1 Expression value: 282,659.5
  phzE2 Expression value: 202,642.5
  phzF1 Expression value: 137,969
  phzF2 Expression value: 139,410.5
  phzG1 Expression value: 118,586
  phzG2 Expression value: 88,845
  phzM Expression value: 93,038
  phzS Expression value: 303,377
  pqsA Expression value: 3,743,059.5
  pqsB Expression value: 5,794,985
  pqsC Expression value: 5,614,134
  pqsD Expression value: 6,055,112.5
  pqsE Expression value: 3,188,208
  rhlA Expression value: 200,100.5
  rhlB Expression value: 165,369.5
  rhlR Expression value: 581,659
Vs ΔrhlI without AHL
  chiC Log2fold change: −0.05904
  fhp Log2fold change: 0.2001
  hcnA Log2fold change: 0.2595
  katA Log2fold change: 0.3253
  katB Log2fold change: 0.1017
  lasB Log2fold change: 1.048
  lecB Log2fold change: −0.7762
  mexG Log2fold change: 0.2215
  mexH Log2fold change: 0.2256
  mexI Log2fold change: −0.1584
  mvfR Log2fold change: −0.1373
  norB Log2fold change: −0.5108
  norC Log2fold change: −0.6332
  opmD Log2fold change: −0.2426
  phnA Log2fold change: 0.3171
  phnB Log2fold change: 0.2753
  phzA1 Log2fold change: −1.792
  phzA2 Log2fold change: 0.1326
  phzB1 Log2fold change: −1.046
  phzB2 Log2fold change: −0.2412
  phzC1 Log2fold change: −0.6965
  phzC2 Log2fold change: −0.2301
  phzD1 Log2fold change: −0.5047
  phzD2 Log2fold change: −0.458
  phzE1 Log2fold change: −0.5209
  phzE2 Log2fold change: −0.574
  phzF1 Log2fold change: −0.731
  phzF2 Log2fold change: −0.7224
  phzG1 Log2fold change: −0.7812
  phzG2 Log2fold change: −0.325
  phzM Log2fold change: −1.898
  phzS Log2fold change: −1.303
  pqsA Log2fold change: 0.5012
  pqsB Log2fold change: 0.621
  pqsC Log2fold change: 0.5508
  pqsD Log2fold change: 0.4552
  pqsE Log2fold change: 0.3409
  rhlA Log2fold change: −0.336
  rhlB Log2fold change: 0.3232
  rhlR Log2fold change: −0.1335
